Experimental findings from patent US9775831B2, “Combinations comprising biphenyl derivatives for use in the treatment of HCV” (BRISTOL-MYERS SQUIBB COMPANY, priority 2013, dated 2017) are described below.

The test concerns genotype-1a variant with glutamine 30 changed to glutamate in the NS5A protein. The test is described as follows: HCV replicon cell-based assay, NS5A synergy with BMS-790052. As to conditions: genotype 1a Q→E variant; test compound titrated in combination with NS5A-targeting compound (BMS-790052 fixed at 200 nM). An excerpt: The NS5A synergistic inhibitory effect of test compounds can be determined using various amounts of an NS5A-targeting compound with titration of a second compound of interest. […] In one embodiment, the HCV genotype strain can be genotype 1a containing a change at amino acid 30 of the NS5A protein consisting of glutamine to glutamate. The test compound can be chosen from compounds listed above or from others present in the literature.
In general terms: Replicon systems follow genome replication, usually without infectious particles.
Consider `CC(C)(C)NC(=O)C(c1ncc(-c2ccc(-c3ccc(-c4cnc(C(C(=O)NC(C)(C)C)C(C)(C)C)[nH]4)cc3)cc2)[nH]1)C(C)(C)C` (centres unmarked) [Example B1], for which the “Fold Synergistic (1a-QE)” value was more than 100 Fold.

In the case of `CC(C)(C)C(C(=O)Nc1cccc(Cl)c1)c1ncc(-c2ccc(-c3ccc(-c4cnc(C(C(=O)Nc5cccc(Cl)c5)C(C)(C)C)[nH]4)cc3)cc2)[nH]1` (centres unmarked) [Example B2], the “Fold Synergistic (1a-QE)” value is less than 10 Fold.

As for `CCN(CC)C(=O)C(c1ncc(-c2ccc(-c3ccc(-c4cnc(C(C(=O)N(CC)CC)C(C)(C)C)[nH]4)cc3)cc2)[nH]1)C(C)(C)C` (centres unmarked) [Example B3], the “Fold Synergistic (1a-QE)” value is more than 10 Fold. For `CC(C)(C)C(C(=O)N1CCCC1)c1ncc(-c2ccc(-c3ccc(-c4cnc(C(C(=O)N5CCCC5)C(C)(C)C)[nH]4)cc3)cc2)[nH]1` (centres unmarked) [Example B4], the “Fold Synergistic (1a-QE)” value is less than 10 Fold. Regarding `CC(C)(C)C(C(=O)NC1CCCCC1)c1ncc(-c2ccc(-c3ccc(-c4cnc(C(C(=O)NC5CCCCC5)C(C)(C)C)[nH]4)cc3)cc2)[nH]1` (centres unmarked) [Example B5], the “Fold Synergistic (1a-QE)” value is less than 10 Fold. For the molecule `COC(=O)[C@@H](NC(=O)C[C@@H](CCC(F)(F)F)c1ncc(-c2ccc(-c3ccc(-c4cnc([C@H](CCC(F)(F)F)CC(=O)N[C@H](C(=O)OC)C(C)C)[nH]4)cc3)cc2)[nH]1)C(C)C` [Example MD-1], the “Fold Synergistic (1a-QE)” value is more than 10 Fold.

Turning to `O=C(C[C@@H](CCC(F)(F)F)c1ncc(-c2ccc(-c3ccc(-c4cnc([C@H](CCC(F)(F)F)CC(=O)N5CCC(F)CC5)[nH]4)cc3)cc2)[nH]1)N1CCC(F)CC1` [Example MD-2], the “Fold Synergistic (1a-QE)” value is listed as more than 100 Fold. Take `CC(C)CNC(=O)C[C@@H](CCC(F)(F)F)c1ncc(-c2ccc(-c3ccc(-c4cnc([C@H](CCC(F)(F)F)CC(=O)NCC(C)C)[nH]4)cc3)cc2)[nH]1` [Example MD-3]: the “Fold Synergistic (1a-QE)” value was more than 10 Fold. To `CC(C)CNC(=O)C[C@@H](CCC(F)(F)F)c1ncc(-c2ccc(-c3ccc(-c4cnc([C@H](CCC(F)(F)F)CC(=O)O)[nH]4)cc3)cc2)[nH]1` [Example MD-4] belongs less than 10 Fold; to `CCO[C@H](CC(=O)N(NC(=O)OC)C(C)C)c1ncc(-c2ccc(-c3ccc(-c4cnc([C@@H](CC(=O)N(NC(=O)OC)C(C)C)OCC)[nH]4)cc3)cc2)[nH]1` [Example MD-5], more than 10 Fold; to `CCO[C@H](CC(=O)NCC(C)C)c1nc(-c2ccc(-c3ccc(-c4c[nH]c([C@@H](CC(=O)NCC(C)C)OCC)n4)cc3)cc2)c[nH]1` [Example MD-6], more than 10 Fold. In the case of `CC(C)CNC(=O)[C@@H]1OC(C)(C)O[C@H]1c1ncc(-c2ccc(-c3ccc(-c4cnc([C@@H]5OC(C)(C)O[C@H]5C(=O)NCC(C)C)[nH]4)cc3)cc2)[nH]1` [Example MD-7], the “Fold Synergistic (1a-QE)” value is listed as less than 10 Fold. For `CC1(C)O[C@@H](C(N)=O)[C@H](c2ncc(-c3ccc(-c4ccc(-c5cnc([C@@H]6OC(C)(C)O[C@H]6C(N)=O)[nH]5)cc4)cc3)[nH]2)O1` [Example MD-9], the “Fold Synergistic (1a-QE)” value was less than 10 Fold. For the molecule `CC(C)CNC(=O)C[C@@H](C)c1nc(-c2ccc(-c3ccc(-c4c[nH]c([C@H](C)CC(=O)NCC(C)C)n4)cc3)cc2)c[nH]1` [Example MD-11], the “Fold Synergistic (1a-QE)” value is given as more than 100 Fold.

On to `C[C@H](CC(=O)N1CCC(F)(F)CC1)c1nc(-c2ccc(-c3ccc(-c4c[nH]c([C@H](C)CC(=O)N5CCC(F)(F)CC5)n4)cc3)cc2)c[nH]1` [Example MD-13], for which the “Fold Synergistic (1a-QE)” value is recorded as more than 100 Fold. As for `CCOC(=O)[C@@H]1OCO[C@H]1c1ncc(-c2ccc(-c3ccc(-c4cnc([C@@H]5OCO[C@H]5C(=O)OCC)[nH]4)cc3)cc2)[nH]1` [Example MD-15], the “Fold Synergistic (1a-QE)” value is listed as less than 10 Fold. Turning to `CC(C)[C@H](CC(=O)NCC(C)(C)C)c1ncc(-c2ccc(-c3ccc(-c4cnc([C@@H](CC(=O)NCC(C)(C)C)C(C)C)[nH]4)cc3)cc2)[nH]1` [Example MD-18], the “Fold Synergistic (1a-QE)” value is recorded as more than 10 Fold. In the case of `CC(C)[C@H](CC(=O)NCc1ccccc1Cl)c1ncc(-c2ccc(-c3ccc(-c4cnc([C@@H](CC(=O)NCc5ccccc5Cl)C(C)C)[nH]4)cc3)cc2)[nH]1` [Example MD-19], the “Fold Synergistic (1a-QE)” value is on record as more than 100 Fold.

As to `CCOCC1(CNC(=O)C[C@H](c2ncc(-c3ccc(-c4ccc(-c5cnc([C@@H](CC(=O)NCC6(COCC)CC6)C(C)C)[nH]5)cc4)cc3)[nH]2)C(C)C)CC1` [Example MD-20], the “Fold Synergistic (1a-QE)” value was more than 10 Fold.

In the case of `C[C@@H]1CN(C(=O)C[C@@H](C)c2ncc(-c3ccc(-c4ccc(-c5cnc([C@H](C)CC(=O)N6C[C@@H](C)O[C@@H](C)C6)[nH]5)cc4)cc3)[nH]2)C[C@H](C)O1` [Example MD-36], the “Fold Synergistic (1a-QE)” value is reported as more than 10 Fold. To `C[C@H](CC(=O)NCC1CC1)c1ncc(-c2ccc(-c3ccc(-c4cnc([C@H](C)CC(=O)NCC5CC5)[nH]4)cc3)cc2)[nH]1` [Example MD-38] belongs more than 100 Fold; to `CC(C)[C@H](CC(=O)NCC(C)(C)O)c1ncc(-c2ccc(-c3ccc(-c4cnc([C@@H](CC(=O)NCC(C)(C)O)C(C)C)[nH]4)cc3)cc2)[nH]1` [Example MD-41], more than 10 Fold; to `CC(C)(C)CNC(=O)C[C@@H](CCC(F)(F)F)c1ncc(-c2ccc(-c3ccc(-c4cnc([C@H](CCC(F)(F)F)CC(=O)NCC(C)(C)C)[nH]4)cc3)cc2)[nH]1` [Example MD-55], less than 10 Fold. The result for `CC(C)N(C(=O)C[C@@H](CCC(F)(F)F)c1ncc(-c2ccc(-c3ccc(-c4cnc([C@H](CCC(F)(F)F)CC(=O)N(C(C)C)C5CC5)[nH]4)cc3)cc2)[nH]1)C1CC1` [Example MD-56] reads less than 10 Fold. `CC(C)NC(=O)C[C@@H](CCC(F)(F)F)c1ncc(-c2ccc(-c3ccc(-c4cnc([C@H](CCC(F)(F)F)CC(=O)N(C(C)C)C5CC5)[nH]4)cc3)cc2)[nH]1` [Example MD-57]: the “Fold Synergistic (1a-QE)” value is reported as more than 10 Fold. As for `COC(=O)NN(C(=O)[C@@H]1OC(C)(C)O[C@H]1c1ncc(-c2ccc(-c3ccc(-c4cnc([C@@H]5OC(C)(C)O[C@H]5C(=O)N(NC(=O)OC)C(C)C)[nH]4)cc3)cc2)[nH]1)C(C)C` [MD-8], the “Fold Synergistic (1a-QE)” value is listed as less than 10 Fold. For `CC1(C)O[C@@H](C(N)=O)[C@H](c2ncc(-c3ccc(-c4ccc(-c5coc([C@@H]6OC(C)(C)O[C@H]6C(N)=O)n5)cc4)cc3)[nH]2)O1` [MD-10], the “Fold Synergistic (1a-QE)” value is less than 10 Fold. As for `COC(=O)NN(C(=O)C[C@@H](C)c1nc(-c2ccc(-c3ccc(-c4c[nH]c([C@H](C)CC(=O)N(NC(=O)OC)C(C)C)n4)cc3)cc2)c[nH]1)C(C)C` [MD-12], the “Fold Synergistic (1a-QE)” value was more than 10 Fold.

For the molecule `CC(C)CNC(=O)[C@@H]1OCO[C@H]1c1ncc(-c2ccc(-c3ccc(-c4cnc([C@@H]5OCO[C@H]5C(=O)NCC(C)C)[nH]4)cc3)cc2)[nH]1` [MD-14], the “Fold Synergistic (1a-QE)” value is given as less than 10 Fold. Take `COC(=O)NN(C(=O)[C@@H]1OCO[C@H]1c1ncc(-c2ccc(-c3ccc(-c4cnc([C@@H]5OCO[C@H]5C(=O)N(NC(=O)OC)C(C)C)[nH]4)cc3)cc2)[nH]1)C(C)C` [MD-17]: the “Fold Synergistic (1a-QE)” value is recorded as less than 10 Fold.

For the molecule `CC(C)[C@H](CC(=O)NC[C@@H]1CC[C@H]2C[C@@H]1C2(C)C)c1ncc(-c2ccc(-c3ccc(-c4cnc([C@@H](CC(=O)NC[C@@H]5CC[C@H]6C[C@@H]5C6(C)C)C(C)C)[nH]4)cc3)cc2)[nH]1` [MD-21], the “Fold Synergistic (1a-QE)” value was more than 100 Fold. To `CC(C)[C@H](CC(=O)NCC12CC3CC(CC(C3)C1)C2)c1ncc(-c2ccc(-c3ccc(-c4cnc([C@@H](CC(=O)NCC56CC7CC(CC(C7)C5)C6)C(C)C)[nH]4)cc3)cc2)[nH]1` [MD-22] belongs more than 100 Fold.

As for `CC(C)[C@H](CC(=O)NCC1(c2ccccc2)CCCCC1)c1ncc(-c2ccc(-c3ccc(-c4cnc([C@@H](CC(=O)NCC5(c6ccccc6)CCCCC5)C(C)C)[nH]4)cc3)cc2)[nH]1` [MD-23], the “Fold Synergistic (1a-QE)” value is listed as more than 100 Fold.

With `CCN(CC)C(=O)CN(C)C(=O)C[C@H](c1ncc(-c2ccc(-c3ccc(-c4cnc([C@@H](CC(=O)N(C)CC(=O)N(CC)CC)C(C)C)[nH]4)cc3)cc2)[nH]1)C(C)C` [MD-24], the “Fold Synergistic (1a-QE)” value is listed as more than 10 Fold. `CC(C)[C@H](CC(=O)N(C)CC(=O)NC(C)(C)C)c1ncc(-c2ccc(-c3ccc(-c4cnc([C@@H](CC(=O)N(C)CC(=O)NC(C)(C)C)C(C)C)[nH]4)cc3)cc2)[nH]1` [MD-25]: the “Fold Synergistic (1a-QE)” value is given as more than 10 Fold. Take `CCCCN(C(=O)C[C@H](c1ncc(-c2ccc(-c3ccc(-c4cnc([C@@H](CC(=O)N(CCCC)C(C)C)C(C)C)[nH]4)cc3)cc2)[nH]1)C(C)C)C(C)C` [MD-26]: the “Fold Synergistic (1a-QE)” value was more than 10 Fold.

In the case of `CC(C)[C@H](CC(=O)N(CCN1CCOC1=O)CC(C)(C)C)c1ncc(-c2ccc(-c3ccc(-c4cnc([C@@H](CC(=O)N(CCN5CCOC5=O)CC(C)(C)C)C(C)C)[nH]4)cc3)cc2)[nH]1` [MD-27], the “Fold Synergistic (1a-QE)” value is more than 10 Fold. Take `CC(C)[C@H](CC(=O)NCC(C)(c1ccccc1)c1ccccc1)c1ncc(-c2ccc(-c3ccc(-c4cnc([C@@H](CC(=O)NCC(C)(c5ccccc5)c5ccccc5)C(C)C)[nH]4)cc3)cc2)[nH]1` [MD-28]: the “Fold Synergistic (1a-QE)” value is more than 100 Fold. Regarding `CC(C)[C@H](CC(=O)N1CCN(c2ccccc2)C(=O)C1)c1ncc(-c2ccc(-c3ccc(-c4cnc([C@@H](CC(=O)N5CCN(c6ccccc6)C(=O)C5)C(C)C)[nH]4)cc3)cc2)[nH]1` [MD-29], the “Fold Synergistic (1a-QE)” value was less than 10 Fold. In the case of `CC(C)[C@H](CC(=O)N(C)CC(=O)N(C)C)c1ncc(-c2ccc(-c3ccc(-c4cnc([C@@H](CC(=O)N(C)CC(=O)N(C)C)C(C)C)[nH]4)cc3)cc2)[nH]1` [MD-30], the “Fold Synergistic (1a-QE)” value is given as less than 10 Fold. As to `CC(C)[C@H](CC(=O)NC1(C#N)CC1)c1ncc(-c2ccc(-c3ccc(-c4cnc([C@@H](CC(=O)NC5(C#N)CC5)C(C)C)[nH]4)cc3)cc2)[nH]1` [MD-31], the “Fold Synergistic (1a-QE)” value is on record as less than 10 Fold.
